{
  "source": "patent US20150354009A1",
  "about": "“COLORECTAL CANCER CLASSIFICATION WITH DIFFERENTIAL PROGNOSIS AND PERSONALIZED THERAPEUTIC RESPONSES” (ECOLE POLYTECHNIQUE FEDERALE DE LAUSANNE (EPFL), priority 2012, published 2015)",
  "tested_on": "CRC cell lines",
  "assay": "Drug response in cell lines (CellTiter-Glo proliferation, 72 h)",
  "format": "cell-based, human",
  "conditions": "PHA-665752 125 nM, relative to vehicle-treated cells (FIG. 3E)",
  "protocol": "Colon cancer cell lines were grown in DMEM (Gibco, USA) plus 10% FBS (Invitrogen, USA) without antibiotics/antimycotics. All the cell lines were confirmed to be negative for mycoplamsa by PCR (VenorGeM kit, Sigma, USA) prior to use and were tested monthly.\nProliferation was monitored using CellTiter-Glo® assay kit according to the manufacturer's instruction (Promega, Dubendorf, Switzerland) on day 3 (72 h).",
  "data": [
    {"smiles": "Cc1[nH]c(/C=C2\\C(=O)Nc3ccc(S(=O)(=O)Cc4c(Cl)cccc4Cl)cc32)c(C)c1C(=O)N1CCC[C@@H]1CN1CCCC1", "note": "[cMet inhibitor, PHA-665752]", "values": [
      {"measurement": "sensitivity to cMet inhibition, CR-TA versus CS-TA cell lines", "result": "CR-TA cell lines were much more sensitive to cMet inhibition than CS-TA cell lines"}
    ]}
  ]
}
